Key:
[1] = rat, in vivo
in vivo [2] = conditions: rat, po, 20 mg/kg
[3] = mouse, in vivo
in vivo [4] = conditions: mouse, po, 20 mg/kg
[5] = test system: Streptococcus group D X66; assay: standard agar dilution-method test (MIC); assay type: cell-based
Excerpt: (§1) Antibiotic activity of selected compounds of Formual 1 is illustrated by the following in vitro and in vivo test data in Table I, the minimum inhibitory concentration (MIC) for representative compounds against a wide range of gram-positive and gram-negative bacteria is presented. The MIC values were obtained by the standard agar dilution-method test.

[6] = test system: Klebsiella pneumoniae KAE; assay: standard agar dilution-method test (MIC); assay type: cell-based
Excerpt: as §1

[7] = test system: Staphylococcus aureus S13E; assay: standard agar dilution-method test (MIC); assay type: cell-based
Excerpt: (§2) The MIC values were obtained by the standard agar dilution-method test.

[8] = test system: Hemophilus influenzae C.L.; assay: standard agar dilution-method test (MIC); assay type: cell-based
Excerpt: as §2

[9] = test system: Klebsiella pneumoniae X26; assay: standard agar dilution-method test (MIC); assay type: cell-based
Excerpt: as §2

[10] = test system: Streptococcus pneumoniae Park I; assay: standard agar dilution-method test (MIC); assay type: cell-based
Excerpt: as §2

[11] = test system: Staphylococcus epidermidis EPI1; assay: standard agar dilution-method test (MIC); assay type: cell-based
Excerpt: as §2

[12] = test system: Streptococcus pyogenes C203; assay: standard agar dilution-method test (MIC); assay type: cell-based
Excerpt: as §2

[13] = test system: Streptococcus group D 2041; assay: standard agar dilution-method test (MIC); assay type: cell-based
Excerpt: as §2

[14] = test system: Klebsiella pneumoniae X65; assay: standard agar dilution-method test (MIC); assay type: cell-based
Excerpt: as §2

Escherichia coli TEM = assay: standard agar dilution-method test (MIC); assay type: cell-based
Excerpt: as §2

Hemophilus influenzae 76 = assay: standard agar dilution-method test (MIC); assay type: cell-based
Excerpt: as §2

[15] = test system: Staphylococcus aureus X400; assay: standard agar dilution-method test (MIC); assay type: cell-based
Excerpt: as §2

[16] = test system: Staphylococcus aureus V41; assay: standard agar dilution-method test (MIC); assay type: cell-based
Excerpt: as §2

Escherichia coli N10 = assay: standard agar dilution-method test (MIC); assay type: cell-based
Excerpt: as §2

Escherichia coli EC14 = assay: standard agar dilution-method test (MIC); assay type: cell-based
Excerpt: as §2

[17] = test system: Staphylococcus epidermidis EPI2; assay: standard agar dilution-method test (MIC); assay type: cell-based
Excerpt: as §2

[18] = test system: Staphylococcus aureus X1.1; assay: standard agar dilution-method test (MIC); assay type: cell-based
Excerpt: as §2

C#CCOC1=C(C(=O)O)N2C(=O)[C@@H](NC(=O)[C@H](N)c3ccccc3)[C@H]2SC1 [Test Compound 1, 7-(R)-[2'-(R)-2'-amino-2'-phenylacetamido]-3-(prop-1'-yn-3'-yloxy)-3-cephem-4-carboxylic acid zwitterion]
plasma levels in rats [1]: high plasma levels | concentration at 20 min (in vivo [2]): 3900 ng/mL | concentration at 1 h (in vivo [2]): 15900 ng/mL | concentration at 2 h (in vivo [2]): 19300 ng/mL | concentration at 4 h (in vivo [2]): 14700 ng/mL | concentration at 6 h (in vivo [2]): 12300 ng/mL | concentration at 9 h (in vivo [2]): 8500 ng/mL | oral absorption characteristics in mice [3]: excellent oral absorption characteristics | concentration at 20 min (in vivo [4]): 23100 ng/mL | concentration at 40 min (in vivo [4]): 12400 ng/mL | concentration at 1 h (in vivo [4]): 4000 ng/mL | concentration at 2 h (in vivo [4]): 850 ng/mL

Benzhydryl 7-(R)-[(2'R)-2'-(N-(t-butylcarbamato))-2'-(para-hydroxyphenyl)acetamido]-3-(prop-1'-yn-3'-yloxy)-3-cephem-4-carboxylate [Example 4]
Minimum Inhibitory Concentration [5]: 64 µg/mL | Minimum Inhibitory Concentration [6]: 64 µg/mL | Minimum Inhibitory Concentration [7]: 16 µg/mL | Minimum Inhibitory Concentration [8]: 8 µg/mL | Minimum Inhibitory Concentration [9]: 2 µg/mL | Minimum Inhibitory Concentration [10]: 0.5 µg/mL | Minimum Inhibitory Concentration [11]: 8 µg/mL | Minimum Inhibitory Concentration [12]: 0.06 µg/mL | Minimum Inhibitory Concentration [13]: 32 µg/mL | Minimum Inhibitory Concentration [14]: 2 µg/mL | Minimum Inhibitory Concentration (Escherichia coli TEM): 8 µg/mL | Minimum Inhibitory Concentration (Hemophilus influenzae 76): 8 µg/mL | Minimum Inhibitory Concentration [15]: 64 µg/mL | Minimum Inhibitory Concentration [16]: 8 µg/mL | Minimum Inhibitory Concentration (Escherichia coli N10): 4 µg/mL | Minimum Inhibitory Concentration (Escherichia coli EC14): 2 µg/mL | Minimum Inhibitory Concentration [17]: 1 µg/mL

Para-nitrobenzyl 7-(R)-[(2'R)-2'-(N-(t-butylcarbamato))-2' -phenylacetamido]-3-(prop-1'-yn-3'-yloxy)-3-cephem-4-carboxylate [Example 3]
Minimum Inhibitory Concentration [5]: 128 µg/mL | Minimum Inhibitory Concentration [6]: 128 µg/mL | Minimum Inhibitory Concentration [7]: 128 µg/mL | Minimum Inhibitory Concentration [8]: 128 µg/mL | Minimum Inhibitory Concentration [9]: 64 µg/mL | Minimum Inhibitory Concentration [10]: 1 µg/mL | Minimum Inhibitory Concentration [11]: 128 µg/mL | Minimum Inhibitory Concentration [12]: 0.5 µg/mL | Minimum Inhibitory Concentration [13]: 128 µg/mL | Minimum Inhibitory Concentration [14]: 128 µg/mL | Minimum Inhibitory Concentration (Escherichia coli TEM): 128 µg/mL | Minimum Inhibitory Concentration (Hemophilus influenzae 76): 128 µg/mL | Minimum Inhibitory Concentration [15]: 128 µg/mL | Minimum Inhibitory Concentration [16]: 128 µg/mL | Minimum Inhibitory Concentration [18]: 8 µg/mL | Minimum Inhibitory Concentration (Escherichia coli N10): 128 µg/mL | Minimum Inhibitory Concentration (Escherichia coli EC14): 64 µg/mL | Minimum Inhibitory Concentration [17]: 8 µg/mL

Para-nitrobenzyl 7-(R)-phenoxyacetamido-3-(but-2'-yn-4'-yloxy)-3-cephem-4-carboxylate [Example 6]
Minimum Inhibitory Concentration [5]: 128 µg/mL | Minimum Inhibitory Concentration [6]: 128 µg/mL | Minimum Inhibitory Concentration [7]: 64 µg/mL | Minimum Inhibitory Concentration [8]: 8 µg/mL | Minimum Inhibitory Concentration [9]: 4 µg/mL | Minimum Inhibitory Concentration [10]: 0.25 µg/mL | Minimum Inhibitory Concentration [11]: 16 µg/mL | Minimum Inhibitory Concentration [12]: 0.06 µg/mL | Minimum Inhibitory Concentration [13]: 32 µg/mL | Minimum Inhibitory Concentration [14]: 4 µg/mL | Minimum Inhibitory Concentration (Escherichia coli TEM): 16 µg/mL | Minimum Inhibitory Concentration (Hemophilus influenzae 76): 4 µg/mL | Minimum Inhibitory Concentration [15]: 64 µg/mL | Minimum Inhibitory Concentration [16]: 64 µg/mL | Minimum Inhibitory Concentration [18]: 0.5 µg/mL | Minimum Inhibitory Concentration (Escherichia coli N10): 8 µg/mL | Minimum Inhibitory Concentration (Escherichia coli EC14): 4 µg/mL | Minimum Inhibitory Concentration [17]: 1 µg/mL

Para-nitrobenzyl 7-(R)-phenoxyacetamido-3-(prop-1'-yn-3'-yloxy)-3-cephem-4-carboxylate [Example 1]
Minimum Inhibitory Concentration [5]: 128 µg/mL | Minimum Inhibitory Concentration [6]: 128 µg/mL | Minimum Inhibitory Concentration [7]: 32 µg/mL | Minimum Inhibitory Concentration [8]: 4 µg/mL | Minimum Inhibitory Concentration [9]: 2 µg/mL | Minimum Inhibitory Concentration [10]: 1 µg/mL | Minimum Inhibitory Concentration [11]: 8 µg/mL | Minimum Inhibitory Concentration [12]: 0.25 µg/mL | Minimum Inhibitory Concentration [13]: 128 µg/mL | Minimum Inhibitory Concentration [14]: 4 µg/mL | Minimum Inhibitory Concentration (Escherichia coli TEM): 8 µg/mL | Minimum Inhibitory Concentration (Hemophilus influenzae 76): 4 µg/mL | Minimum Inhibitory Concentration [15]: 64 µg/mL | Minimum Inhibitory Concentration [16]: 32 µg/mL | Minimum Inhibitory Concentration [18]: 2 µg/mL | Minimum Inhibitory Concentration (Escherichia coli N10): 4 µg/mL | Minimum Inhibitory Concentration (Escherichia coli EC14): 2 µg/mL | Minimum Inhibitory Concentration [17]: 2 µg/mL

benzhydryl 7-(R)-[(2'R)-2'-(N-(t-butylcarbamato))-2'-phenylacetamido]-3-(prop-1'-yn-3'-yloxy)-3-cephem-4-carboxylate [Example 2]
Minimum Inhibitory Concentration [5]: 128 µg/mL | Minimum Inhibitory Concentration [6]: 128 µg/mL | Minimum Inhibitory Concentration [7]: 128 µg/mL | Minimum Inhibitory Concentration [8]: 4 µg/mL | Minimum Inhibitory Concentration [9]: 2 µg/mL | Minimum Inhibitory Concentration [10]: 0.25 µg/mL | Minimum Inhibitory Concentration [11]: 32 µg/mL | Minimum Inhibitory Concentration [12]: 0.06 µg/mL | Minimum Inhibitory Concentration [13]: 64 µg/mL | Minimum Inhibitory Concentration [14]: 4 µg/mL | Minimum Inhibitory Concentration (Escherichia coli TEM): 16 µg/mL | Minimum Inhibitory Concentration (Hemophilus influenzae 76): 8 µg/mL | Minimum Inhibitory Concentration [15]: 128 µg/mL | Minimum Inhibitory Concentration [16]: 128 µg/mL | Minimum Inhibitory Concentration [18]: 2 µg/mL | Minimum Inhibitory Concentration (Escherichia coli N10): 16 µg/mL | Minimum Inhibitory Concentration (Escherichia coli EC14): 4 µg/mL | Minimum Inhibitory Concentration [17]: 2 µg/mL

From patent publication US4604386A, “3-(alkynylalkyloxy) cephalosporins” (Eli Lilly and Company, priority 1984, dated 1986)
